Measurements published in patent US20240400553A1, “AMINE BASED MATRIPTASE 2 INHIBITORS AND USES THEREOF” (Disc Medicine, Inc., priority 2023, published 2024).

Molecular target: T1, Human Recombinant Matriptase 2 (Homo sapiens, UniProt Q8IU80)
T1 construct: made in house
T1 sequence (Q8IU80 1-811): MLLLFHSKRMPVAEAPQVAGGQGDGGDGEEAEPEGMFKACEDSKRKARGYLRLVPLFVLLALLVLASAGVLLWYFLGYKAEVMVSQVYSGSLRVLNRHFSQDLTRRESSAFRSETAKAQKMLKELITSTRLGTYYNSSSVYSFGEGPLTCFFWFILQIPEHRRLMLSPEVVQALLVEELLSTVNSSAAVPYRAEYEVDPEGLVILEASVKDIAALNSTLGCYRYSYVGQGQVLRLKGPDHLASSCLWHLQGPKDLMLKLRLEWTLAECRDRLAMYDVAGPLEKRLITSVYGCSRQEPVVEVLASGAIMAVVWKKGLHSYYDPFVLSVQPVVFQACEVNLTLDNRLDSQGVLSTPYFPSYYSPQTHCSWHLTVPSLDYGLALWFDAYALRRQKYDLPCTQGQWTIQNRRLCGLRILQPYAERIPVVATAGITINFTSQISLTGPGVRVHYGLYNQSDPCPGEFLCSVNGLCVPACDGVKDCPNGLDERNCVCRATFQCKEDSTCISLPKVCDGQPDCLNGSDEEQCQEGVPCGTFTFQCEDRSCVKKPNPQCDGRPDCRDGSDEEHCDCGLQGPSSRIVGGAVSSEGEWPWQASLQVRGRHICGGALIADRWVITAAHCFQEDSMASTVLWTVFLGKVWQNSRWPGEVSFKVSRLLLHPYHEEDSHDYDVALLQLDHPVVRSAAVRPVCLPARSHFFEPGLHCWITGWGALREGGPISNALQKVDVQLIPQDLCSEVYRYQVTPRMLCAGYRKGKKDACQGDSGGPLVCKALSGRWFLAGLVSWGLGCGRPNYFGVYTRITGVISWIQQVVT
Test: Matriptase 2 inhibition, fluorescence based assay (Method I)
Assay type: biochemical
Conditions: Table A; Ki of Matriptase-2; read-out: Mat-2 Ki
How it was run: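 Fluorogenic readout (Ex 360/Em 480 nm) taken 60 min after adding 62 μM Boc-Gln-Ala-Arg-AMC, following 30-min enzyme–compound preincubation at 25 °C. Conditions: 3.5 nM in-house enzyme, pH 7.5 Tris/NaCl/gelatin buffer, 1% DMSO; percent inhibition versus concentration fitted by variable-slope sigmoidal regression.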

Ki | SMILES
100 to 500 nM | CC(C)(C)n1nccc1COC(=O)c1cc2ccc(CN)nc2n1Cc1cc(NS(=O)(=O)Cc2ccccc2)cc2ccccc12 [Compound 110]
100 to 500 nM | CC(C)n1nccc1COC(=O)c1cc2ccc(CN)nc2n1Cc1cc(NS(=O)(=O)Cc2ccccc2)cc2ccccc12 [Compound 111, [1-(propan-2-yl)-1H-pyrazol-5-yl]methyl 6-(aminomethyl)-1-{[3-(phenylmethanesulfon-amido)naphthalen-1-yl]-methyl}-1H-pyrrolo-[2,3-b]pyridine-2-car-boxylate]
500 to 3000 nM | CC(C)OC(=O)c1cc2ccc(CN)nc2n1Cc1cc(NS(=O)(=O)Cc2ccccc2)cc2ccccc12 [Compound 112, propan-2-yl 6-(amino-methyl)-1-{[3-(phenyl-methanesulfonamido)-naphthalen-1-yl]methyl}-1H-pyrrolo[2,3-b]pyr-idine-2-carboxylate]
500 to 3000 nM | NCc1ccc2cc(C(=O)O)n(Cc3cc(NS(=O)(=O)C4(c5ccccc5)CC4)cc4ccccc34)c2n1 [Compound 113, 6-(aminomethyl)-1-{[3-(1-phenylcyclopropane-sulfonamido)naphthalen-1-yl]methyl}-1H-pyr-rolo[2,3-b]pyridine-2-carboxylic acid]
500 to 3000 nM | NCc1ccc2cc(C(=O)OCCn3cccc3)n(Cc3cc(NS(=O)(=O)Cc4ccccc4)cc4ccccc34)c2n1 [Compound 114, 2-(1H-pyrrol-1-yl)ethyl 6-(aminomethyl)-1-{[3-(phenylmethanesulfon-amido)naphthalen-1-yl]-methyl}-1H-pyrrolo[2,3-b]pyridine-2-carboxylate]
500 to 3000 nM | CCOC(=O)c1cc2ccc(CN)nc2n1Cc1cc(NS(=O)(=O)Cc2ccccc2)cc2ccccc12 [Compound 115, ethyl 6-(aminomethyl)-1-{[3-(phenylmethanesul-fonamido)naphthalen-1-yl]methyl}-1H-pyrrolo-[2,3-b]pyridine-2-car-boxylate]
500 to 3000 nM | COC(=O)c1cc2ccc(CN)nc2n1Cc1cc(NS(=O)(=O)Cc2ccccc2)cc2ccccc12 [Compound 116, methyl 6-(aminomethyl)-1-{[3-(phenylmethane-sulfonamido)naphthalen-1-yl]methyl}-1H-pyrrolo-[2,3-b]pyridine-2-car-boxylate]
500 to 3000 nM | NCc1ccc2cc(C(=O)OCC34CC(F)(C3)C4)n(Cc3cc(NS(=O)(=O)Cc4ccccc4)cc4ccccc34)c2n1 [Compound 117, {3-fluorobicyclo[1.1.1]-pentan-1-yl}methyl 6-(aminomethyl)-1-{[3-(phenylmethanesulfon-amido)naphthalen-1-yl]-methyl}-1H-pyrrolo[2,3-b]pyridine-2-carboxylate]
500 to 3000 nM | NCc1ccc2cc(C(=O)OCC3CC3)n(Cc3cc(NS(=O)(=O)Cc4ccccc4)cc4ccccc34)c2n1 [Compound 120, cyclopropylmethyl 6-(aminomethyl)-1-{[3-(phenylmethanesulfon-amido)naphthalen-1-yl]-methyl}-1H-pyrrolo[2,3-b]pyridine-2-carboxylate]
500 to 3000 nM | CC(C)COC(=O)c1cc2ccc(CN)nc2n1Cc1cc(NS(=O)(=O)Cc2ccccc2)cc2ccccc12 [Compound 121, 2-methylpropyl 6-(aminomethyl)-1-{[3-(phenylmethanesulfon-amido)naphthalen-1-yl]-methyl}-1H-pyrrolo[2,3-b]pyridine-2-carboxylate]
500 to 3000 nM | NCc1ccc2cc(C(=O)OCc3ccccc3)n(Cc3cc(NS(=O)(=O)Cc4ccccc4)cc4ccccc34)c2n1 [Compound 123, benzyl 6-(aminomethyl)-1-{[3-(phenylmethane-sulfonamido)naphthalen-1-yl]methyl}-1H-pyr-rolo[2,3-b]pyridine-2-carboxylate]
500 to 3000 nM | N#Cc1ccc(OC(=O)c2cc3ccc(CN)nc3n2Cc2cc(NS(=O)(=O)Cc3ccccc3)cc3ccccc23)cc1 [Compound 125, 4-cyanophenyl 6-(aminomethyl)-1-{[3-(phenylmethanesulfon-amido)naphthalen-1-yl]-methyl}-1H-pyrrolo-[2,3-b]pyridine-2-car-boxylate]
500 to 3000 nM | CN(CCOC(=O)c1cc2ccc(CN)nc2n1Cc1cc(NS(=O)(=O)Cc2ccccc2)cc2ccccc12)c1ccccc1 [Compound 126, 2-[methyl(phenyl)-amino]ethyl 6-(amino-methyl)-1-{[3-(phenyl-methanesulfonamido)-naphthalen-1-yl]methyl}-1H-pyrrolo[2,3-b]pyr-idine-2-carboxylate]
100 to 500 nM | NCc1ccc2cc(C(=O)OCCN3CCOC3=O)n(Cc3cc(NS(=O)(=O)Cc4ccccc4)cc4ccccc34)c2n1 [Compound 130]
100 to 500 nM | CC(C)N(CCOC(=O)c1cc2ccc(CN)nc2n1Cc1cc(NS(=O)(=O)Cc2ccccc2)cc2ccccc12)C(C)C [Compound 131, 2-[bis(propan-2-yl)-amino]ethyl 6-(amino-methyl)-1-{[3-(phenyl-methanesulfonamido)-naphthalen-1-yl]meth-yl}-1H-pyrrolo[2,3-b]-pyridine-2-carboxylate]
100 to 500 nM | NCc1ccc2cc(C(=O)OCCCN3CCOCC3)n(Cc3cc(NS(=O)(=O)Cc4ccccc4)cc4ccccc34)c2n1 [Compound 133, 3-(morpholin-4-yl)prop-yl 6-(aminomethyl)-1-{[3-(phenylmethanesul-fonamido)naphthalen-1-ylmethyl}-1H-pyrrolo-[2,3-b]pyridine-2-car-boxylate]
100 to 500 nM | CN(CCOC(=O)c1cc2ccc(CN)nc2n1Cc1cc(NS(=O)(=O)Cc2ccccc2)cc2ccccc12)Cc1ccccc1 [Compound 134, 2-[benzyl(methyl)-amino]ethyl 6-(amino-methyl)-1-{[3-(phenyl-methanesulfonamido)-naphthalen-1-yl]methyl}-1H-pyrrolo[2,3-b]pyr-idine-2-carboxylate]
≤ 100 nM | CN1CCN(CCOC(=O)c2cc3ccc(CN)nc3n2Cc2cc(NS(=O)(=O)Cc3ccccc3)cc3ccccc23)CC1 [Compound 135, 2-(4-methylpiperazin-1-ylethyl 6-(aminomethyl)-1-{[3-(phenylmethane-sulfonamido)naphthalen-1-yl]methyl}-1H-pyrrolo-[2,3-b]pyridine-2-car-boxylate]
500 to 3000 nM | NCc1ccc2cc(C(=O)OCCN(Cc3ccccc3)CC3CC3)n(Cc3cc(NS(=O)(=O)Cc4ccccc4)cc4ccccc34)c2n1 [Compound 136, 2-[benzyl(cyclopropyl-methyl)amino]ethyl 6-(aminomethyl)-1-{[3-(phenylmethanesulfon-amido)naphthalen-1-yl]-methyl}-1H-pyrrolo[2,3-b]pyridine-2-carboxylate]
≤ 100 nM | Cn1ccnc1COC(=O)c1cc2ccc(CN)nc2n1Cc1cc(NS(=O)(=O)Cc2ccccc2)cc2ccccc12 [Compound 137, (1-methyl-1H-imidazol-2-yl)methyl 6-(amino-methyl)-1-{[3-(phenyl-methanesulfonamido)-naphthalen-1-yl]methyl}-1H-pyrrolo[2,3-b]pyr-idine-2-carboxylate]
100 to 500 nM | CN(C)C(=O)COC(=O)c1cc2ccc(CN)nc2n1Cc1cc(NS(=O)(=O)Cc2ccccc2)cc2ccccc12 [Compound 139, (dimethylcarbamoyl)-methyl 6-(aminomethyl)-1-{[3-(phenylmethane-sulfonamido)naphthalen-1-yl]methyl}-1H-pyrrolo-[2,3-b]pyridine-2-car-boxylate]
100 to 500 nM | Cc1nccn1CCOC(=O)c1cc2ccc(CN)nc2n1Cc1cc(NS(=O)(=O)Cc2ccccc2)cc2ccccc12 [Compound 140, 2-(2-methyl-1H-imid-azol-1-yl)ethyl 6-(amino-methyl)-1-{[3-(phenyl-methanesulfonamido)-naphthalen-1-yl]methyl}-1H-pyrrolo[2,3-b]pyr-idine-2-carboxylate]
100 to 500 nM | CC(=O)N(C)CCOC(=O)c1cc2ccc(CN)nc2n1Cc1cc(NS(=O)(=O)Cc2ccccc2)cc2ccccc12 [Compound 141, 2-(N-methylacetamido)-ethyl 6-(aminomethyl)-1-{[3-(phenylmethane-sulfonamido)naphthalen-1-yl]methyl}-1H-pyrrolo-[2,3-b]pyridine-2-car-boxylate]
100 to 500 nM | COCCN1CCC(COC(=O)c2cc3ccc(CN)nc3n2Cc2cc(NS(=O)(=O)Cc3ccccc3)cc3ccccc23)CC1 [Compound 142, [1-(2-methoxyethyl)-piperidin-4-yl]methyl 6-(aminomethyl)-1-{[3-(phenylmethanesulfon-amido)naphthalen-1-yl]-methyl}-1H-pyrrolo[2,3-b]pyridine-2-carboxylate]

SMILES | Ki
CN(CCOC(=O)c1cc2ccc(CN)nc2n1Cc1cc(NS(=O)(=O)Cc2ccccc2)cc2ccccc12)C(=O)OC(C)(C)C [Compound 122, 2-{[(tert-butoxy)carbon-yl](methyl)amino}ethyl 6-(aminomethyl)-1-{[3-(phenylmethanesulfon-amido)naphthalen-1-yl]-methyl}-1H-pyrrolo[2,3-b]pyridine-2-carboxylate] | 500 to 3000 nM
